Tested on: Plasmodium berghei
Assay: Luciferase/luciferin-expressing antifolate-resistant parasites were used to infect a culture of HepG2 cells that were pre-incubated with compounds. Infected hepatocytes emit light due to the luciferase reaction. Assay results are presented as the percent inhibition of light emission compared to control. […]
Assay type: functional
Details: sporozoite; for IC90: read-out: LUCIFERASE INFECTION ASSAY - IC90

Compound	IC90 [µM]	further results
CN(C)c1ccc(C2CNC(c3ccc(Cl)c([N+](=O)[O-])c3)c3[nH]c4ccccc4c32)cc1 (configuration not stated)	> 10	IC50 (PBLUC_HILL_SLOPE 1.52, PBLUC_R_SQUARED 0.0896, read-out: LUCIFERASE INFECTION ASSAY - IC50): > 10 µM
COc1cc(C(=O)Nc2cccc(-n3cnnn3)c2)cc(OC)c1OC	> 9.29	IC50 (PBLUC_HILL_SLOPE 1.51, PBLUC_R_SQUARED 0.135, read-out: LUCIFERASE INFECTION ASSAY - IC50): 5.06 µM
S=C(NCCc1csc2ccccc12)Nc1ccc(Cl)cc1	> 9.51	IC50 (PBLUC_HILL_SLOPE 1.56, PBLUC_R_SQUARED 0.124, read-out: LUCIFERASE INFECTION ASSAY - IC50): > 9.51 µM
N#CC1(C#N)C2C=CC(C2)C1(C#N)C#N	> 17	IC50 (PBLUC_HILL_SLOPE 1.54, PBLUC_R_SQUARED 0.0374, read-out: LUCIFERASE INFECTION ASSAY - IC50): > 17 µM
Fc1ccc(Nc2nccc3c2ncn3Cc2ccccc2)cc1Cl	> 10	IC50 (PBLUC_HILL_SLOPE 1.48, PBLUC_R_SQUARED 0.272, read-out: LUCIFERASE INFECTION ASSAY - IC50): 3.67 µM
Cn1nnnc1SCC(=O)Nc1ccc(C(=O)Nc2ncccc2O)cc1	6.88	IC50 (PBLUC_HILL_SLOPE 1.53, PBLUC_R_SQUARED 0.512, read-out: LUCIFERASE INFECTION ASSAY - IC50): 1.64 µM
CSC(=NNc1ccc([N+](=O)[O-])cc1)NC(=O)c1c(Cl)cccc1Cl	> 8.27	IC50 (PBLUC_HILL_SLOPE 1.5, PBLUC_R_SQUARED 0.194, read-out: LUCIFERASE INFECTION ASSAY - IC50): 7.91 µM
Cc1ccc(OCc2csc(-c3cnn(C)c3)n2)c2c1C(C)CC2=O (configuration not stated)	> 10	IC50 (PBLUC_HILL_SLOPE 1.52, PBLUC_R_SQUARED 0.607, read-out: LUCIFERASE INFECTION ASSAY - IC50): 3.47 µM
COc1ccc2c(c1)CCCC21NC(=O)N(Cc2nc3ccccc3s2)C1=O (configuration not stated)	8.43	IC50 (PBLUC_HILL_SLOPE 1.51, PBLUC_R_SQUARED 0.684, read-out: LUCIFERASE INFECTION ASSAY - IC50): 1.97 µM
CC(C)c1ccc(C2C3CCc4ccccc4C3=NN2CCO)cc1 (configuration not stated)	1.32	IC50 (PBLUC_HILL_SLOPE 1.49, PBLUC_R_SQUARED 0.685, read-out: LUCIFERASE INFECTION ASSAY - IC50): 0.301 µM
CC1(C)CS/C(=N\Cc2ccccc2)N1C(=O)C(c1ccccc1)c1ccccc1	> 10	IC50 (PBLUC_HILL_SLOPE 1.51, PBLUC_R_SQUARED 0.0539, read-out: LUCIFERASE INFECTION ASSAY - IC50): > 10 µM
O=C(CSc1nnc(/C=C/c2ccc(F)cc2)[nH]1)N(c1ccccc1)C1CCCCC1	1.58	IC50 (PBLUC_HILL_SLOPE 1.52, PBLUC_R_SQUARED 0.866, read-out: LUCIFERASE INFECTION ASSAY - IC50): 0.374 µM
CNC(=O)c1nn(CC2CCCCC2)c2c1CC(NC1CCCC1)CC2 (configuration not stated)	> 9.2	IC50 (PBLUC_HILL_SLOPE 1.5, PBLUC_R_SQUARED 0.479, read-out: LUCIFERASE INFECTION ASSAY - IC50): 4.38 µM
CNc1nc2cnc(-c3cccc4ccccc34)cc2n1-c1ccccc1	> 10	IC50 (PBLUC_HILL_SLOPE 1.54, PBLUC_R_SQUARED 0.64, read-out: LUCIFERASE INFECTION ASSAY - IC50): 4.99 µM
Cc1ccc(NC(=O)COc2ccc3c(c2C)OC(C)(C)CC3)cc1	> 9.72	IC50 (PBLUC_HILL_SLOPE 1.51, PBLUC_R_SQUARED 0.601, read-out: LUCIFERASE INFECTION ASSAY - IC50): 3.8 µM
COc1ccc(O)c(C(=O)c2cc(Cl)c3nc4ccccc4c(=O)n3c2)c1	0.494	IC50 (PBLUC_HILL_SLOPE 1.52, PBLUC_R_SQUARED 0.671, read-out: LUCIFERASE INFECTION ASSAY - IC50): 0.117 µM
CC(C)(C)c1cc(C(=O)Nc2ccc(Cl)cc2)n(Cc2ccccc2)n1	> 8.97	IC50 (PBLUC_HILL_SLOPE 1.52, PBLUC_R_SQUARED 0.257, read-out: LUCIFERASE INFECTION ASSAY - IC50): 6.98 µM
CCCCNC(=O)COc1ccc2[nH]c3ccccc3c(=O)c2c1	8.21	IC50 (PBLUC_HILL_SLOPE 1.51, PBLUC_R_SQUARED 0.724, read-out: LUCIFERASE INFECTION ASSAY - IC50): 1.92 µM
CNC(=O)c1ccc2n1CCN(C(=O)OCc1ccccc1)C2C (configuration not stated)	> 10	IC50 (PBLUC_HILL_SLOPE 1.5, PBLUC_R_SQUARED 0.67, read-out: LUCIFERASE INFECTION ASSAY - IC50): 3.17 µM
FC(F)(F)c1ccnc(N2CCN(C(c3ccccc3)c3ccccc3)CC2)c1	> 8.3	IC50 (PBLUC_HILL_SLOPE 1.54, PBLUC_R_SQUARED 0.0984, read-out: LUCIFERASE INFECTION ASSAY - IC50): > 8.3 µM
CCCCCCCCSC(=S)c1c(C)[nH]n(-c2ccccc2)c1=O	> 9.1	IC50 (PBLUC_HILL_SLOPE 1.5, PBLUC_R_SQUARED 0.801, read-out: LUCIFERASE INFECTION ASSAY - IC50): > 9.1 µM

Compound	IC90 [µM]	further results
Cc1occc1C(=O)Nc1ccc(Cl)c(C(F)(F)F)c1	> 10	IC50 (PBLUC_HILL_SLOPE 1.47, PBLUC_R_SQUARED 0.656, read-out: LUCIFERASE INFECTION ASSAY - IC50): 6.43 µM
O/N=C1/c2ccccc2-c2nnc(-c3cccc(OC(F)(F)F)c3)cc21	1.49	IC50 (PBLUC_HILL_SLOPE 1.48, PBLUC_R_SQUARED 0.765, read-out: LUCIFERASE INFECTION ASSAY - IC50): 0.337 µM
c1cc[n+](Cc2ccc(-c3nc4ccccc4s3)cc2)cc1	7.9	IC50 (PBLUC_HILL_SLOPE 1.53, PBLUC_R_SQUARED 0.36, read-out: LUCIFERASE INFECTION ASSAY - IC50): 1.88 µM
COC(=O)C1=CC2C3C(=O)N(c4cc(Cl)cc(Cl)c4)C(=O)C3C1C1C(=O)N(c3cc(Cl)cc(Cl)c3)C(=O)C21 (configuration not stated)	> 5.55	IC50 (PBLUC_HILL_SLOPE 1.53, PBLUC_R_SQUARED 0.573, read-out: LUCIFERASE INFECTION ASSAY - IC50): 2.18 µM
C=CCc1c(C)nc2c(-c3ccccc3)cnn2c1N1CCN(CCO)CC1	> 8.74	IC50 (PBLUC_HILL_SLOPE 1.51, PBLUC_R_SQUARED 0.304, read-out: LUCIFERASE INFECTION ASSAY - IC50): 2.98 µM
C(=C\c1nc2ccccc2s1)/c1ccc(CN2CCCCC2)cc1	2.91	IC50 (PBLUC_HILL_SLOPE 1.51, PBLUC_R_SQUARED 0.817, read-out: LUCIFERASE INFECTION ASSAY - IC50): 0.679 µM
CN(C)C(CNC(=O)c1ccc(COc2ccccc2)cc1)Cc1ccccc1 (configuration not stated)	> 10	IC50 (PBLUC_HILL_SLOPE 1.49, PBLUC_R_SQUARED 0.218, read-out: LUCIFERASE INFECTION ASSAY - IC50): 7.64 µM
CC(NC(=O)c1cc(-c2ccc3c(c2)OCCO3)nc2c1cnn2C(C)C)c1nc2ccccc2[nH]1 (configuration not stated)	> 10	IC50 (PBLUC_HILL_SLOPE 1.49, PBLUC_R_SQUARED 0.0633, read-out: LUCIFERASE INFECTION ASSAY - IC50): > 10 µM
CCOC(=O)c1c(C)nn(-c2ccc(N3C(=O)C=CC3=O)cc2)c1C	> 9.72	IC50 (PBLUC_HILL_SLOPE 1.49, PBLUC_R_SQUARED 0.186, read-out: LUCIFERASE INFECTION ASSAY - IC50): 6.99 µM
c1ccc(OCCCn2c(CN3CCCCC3)nc3ccccc32)cc1	> 9.44	IC50 (PBLUC_HILL_SLOPE 1.54, PBLUC_R_SQUARED 0.0855, read-out: LUCIFERASE INFECTION ASSAY - IC50): > 9.44 µM
CCOC(=O)N1CCC(NCC(O)COc2ccc(C(C)(C)C)cc2)CC1 (configuration not stated)	> 10	IC50 (PBLUC_HILL_SLOPE 1.54, PBLUC_R_SQUARED 0.688, read-out: LUCIFERASE INFECTION ASSAY - IC50): 4.08 µM
O=S(=O)(Oc1cncc(Cl)c1)c1cc(Cl)cc(Cl)c1	> 9.75	IC50 (PBLUC_HILL_SLOPE 1.51, PBLUC_R_SQUARED 0.362, read-out: LUCIFERASE INFECTION ASSAY - IC50): 8.89 µM
CC1(C)CC(=O)C2Sc3ccccc3N=C2C1 (configuration not stated)	> 13.5	IC50 (PBLUC_HILL_SLOPE 1.5, PBLUC_R_SQUARED 0.224, read-out: LUCIFERASE INFECTION ASSAY - IC50): 10.8 µM
COc1ccc(NC(C(=O)Nc2cccc(C(F)(F)F)c2)c2ccccc2)cc1OC (configuration not stated)	> 10	IC50 (PBLUC_HILL_SLOPE 1.54, PBLUC_R_SQUARED 0.609, read-out: LUCIFERASE INFECTION ASSAY - IC50): 5.09 µM
Nc1ccc(C(OC(=O)c2ccc(Cl)cc2Cl)(C(F)(F)F)C(F)(F)F)cc1	> 10	IC50 (PBLUC_HILL_SLOPE 1.55, PBLUC_R_SQUARED 0.496, read-out: LUCIFERASE INFECTION ASSAY - IC50): 8.08 µM
COc1ccc2c(c1)CCCC21NC(=O)N(Cc2cc(=O)n3cc(C)ccc3n2)C1=O (configuration not stated)	1.38	IC50 (PBLUC_HILL_SLOPE 1.52, PBLUC_R_SQUARED 0.761, read-out: LUCIFERASE INFECTION ASSAY - IC50): 0.324 µM
CC(C)c1ccc(OCC(=O)NC2CCCCCCC2)cc1	> 10.9	IC50 (PBLUC_HILL_SLOPE 1.5, PBLUC_R_SQUARED 0.0788, read-out: LUCIFERASE INFECTION ASSAY - IC50): > 10.9 µM
CC(Sc1nc2ccccc2c(=O)n1CCN(C(C)C)C(C)C)C(N)=O (configuration not stated)	> 10	IC50 (PBLUC_HILL_SLOPE 1.51, PBLUC_R_SQUARED 0.457, read-out: LUCIFERASE INFECTION ASSAY - IC50): 6.73 µM
CCn1c(=O)n(Cc2ncc(-c3cccc(Cl)c3)o2)c2ccccc21	> 10	IC50 (PBLUC_HILL_SLOPE 1.51, PBLUC_R_SQUARED 0.651, read-out: LUCIFERASE INFECTION ASSAY - IC50): 5.23 µM
COc1ccc(C2Sc3ccccc3N=C3C2=C(O)c2ccccc23)cc1 (configuration not stated)	1.84	IC50 (PBLUC_HILL_SLOPE 1.48, PBLUC_R_SQUARED 0.746, read-out: LUCIFERASE INFECTION ASSAY - IC50): 0.42 µM

— ChEMBL document CHEMBL4483862, “Open-source discovery of chemical leads for next-generation chemoprotective antimalarials” (2018)
